Results published in patent publication US20250049781A1, “PHARMACEUTICAL COMPOSITIONS COMPRISING RPL554 IN HFA-134A FOR ADMINISTRATION BY INHALATION” (VERONA PHARMA PLC, priority 2018, published 2025).
“And” between values parts separate entries of the source, which are not always exact repeats. Equal values may be shown once.

How the values were obtained:
Assay type in all cases: physicochemical
[1] = Sedimentation score of RPL554 suspensions in HFA-134a, HFA-227ea and mixtures (visual, glass vials); set-up: key to Sedimentation score: 1 = fastest sediment/cream (undesirable), 10 = slowest (acceptable)
Procedure: (§1) Samples were made by adding the required amounts of RPL554 (see Table 3) to 15 ml pressure rated clear glass vials. The propellant, HFA-134a, HFA-227ea or combinations of the two (see Table 4) was added through the valve and the samples were mixed in an ultrasonic bath for 30 seconds. The same target fill weight of 11.6 g (±0.5 g) was used for all samples. The appearance of the API particles in the propellants was assessed with regards to both the sedimentation rate and flocculation behaviour (see FIG. 1). The sedimentation rate of the formulations was visually assessed after suspension agitation by recording images of the glass vials using a high-speed camera. The suspension quality was determined by assigning a sedimentation score of from 1 to 10 based on the amount of active particles which had settled or floated in 30 seconds, with 1being the fastest to sediment/cream (i.e. undesirable) and 10 being the slowest to sediment/cream (i.e. acceptable).

[2] = Sedimentation score of pMDI formulations containing HFA-134a, oleic acid and ethanol; set-up: key: 1 = fastest sedimentation (undesirable), 10 = slowest (acceptable)
Procedure: as §1
In order to seek to improve the suspension characteristics the inclusion of additional excipients was investigated. In particular, formulations further comprising a surfactant (oleic acid, Ph. Eur./BP) and a co-solvent (ethanol, 100% USP-NF) were prepared.

[3] = RPL554 dissolved in HFA-134a/ethanol with or without oleic acid (UV/Visible); conditions: 24 hours at ambient temperature
Procedure: Samples were prepared by adding 1.5 mg of RPL554 to plain 14 mL aluminium canisters, with ethanol, oleic acid and HFA-134a. Excipients were added to the canisters to maintain an ethanol/oleic acid ratio of a 50:1 (see Table 8). Corresponding canisters were also produced containing RPL554, ethanol and HFA-134a only. The canisters were crimped with 63 μL pMDI valves, with shortened dip tubes (FIG. 3), and filled to 11.6 g with HFA-134a through the valve. The length of the dip tubes was sufficient to extend into the liquid propellant/co-solvent phase only (i.e. after the API particles had settled). The samples were placed in an ultrasonic bath for 30 seconds.
All the canisters were left for 24 hours at ambient temperature to settle and to establish dissolution equilibrium. To determine the amount of API dissolved, each canister was fired five times, in an upright position (through a cannula fitted to the valve stem) into a 10.0 cm^3 volumetric flask. The flask was made up to volume with dehydrated ethanol and the solution was analysed using UV/Visible spectroscopy (Perkin Elmer, Model Lambda 35). The concentration of RPL554 was calculated, quantitatively, against a three point standard curve.

[4] = Solubility of RPL554 in ethanol (USP/BP criteria)
Procedure: However, the observations of dissolution and recrystallisation with the lowest product strength (10 μg/actuation) prompted further investigations into the solubility of RPL554 in ethanol in the presence of oleic acid.
The original assessment was carried out using Analytical Reagent grade ethanol. […] Unexpectedly, RPL554 was therefore found to have some solubility in ethanol.

COc1cc2c(cc1OC)-c1c/c(=N\c3c(C)cc(C)cc3C)n(CCNC(N)=O)c(=O)n1CC2 [RPL554, 9,10-dimethoxy-2-(2,4,6-trimethylphenylimino)-3-(N-carbamoyl-2-aminoethyl)-3,4,6,7-tetrahydro-2H-pyrimido[6,1-a]isoquinolin-4-one]
Sedimentation score ([1]; 10 μg/actuation, HFA-134a 0% w/w, HFA-227ea 100% w/w): 3
Sedimentation score ([1]; 10 μg/actuation, HFA-134a 25% w/w, HFA-227ea 75% w/w): 5
Sedimentation score ([1]; 10 μg/actuation, HFA-134a 50% w/w, HFA-227ea 50% w/w): 4
Sedimentation score ([1]; 10 μg/actuation, HFA-134a 75% w/w, HFA-227ea 25% w/w): 6
Sedimentation score ([1]; 10 μg/actuation, HFA-134a 100% w/w, HFA-227ea 0% w/w, scale 1-10, 10 slowest): 6
Sedimentation score ([1]; 50 μg/actuation, HFA-134a 0% w/w, HFA-227ea 100% w/w): 3
Sedimentation score ([1]; 50 μg/actuation, HFA-134a 25% w/w, HFA-227ea 75% w/w): 4
Sedimentation score ([1]; 50 μg/actuation, HFA-134a 50% w/w, HFA-227ea 50% w/w): 3
Sedimentation score ([1]; 50 μg/actuation, HFA-134a 75% w/w, HFA-227ea 25% w/w): 6
Sedimentation score ([1]; 50 μg/actuation, HFA-134a 100% w/w, HFA-227ea 0% w/w): 6
Sedimentation score ([1]; 150 μg/actuation, HFA-134a 0% w/w, HFA-227ea 100% w/w): 3
Sedimentation score ([1]; 150 μg/actuation, HFA-134a 25% w/w, HFA-227ea 75% w/w): 4
Sedimentation score ([1]; 150 μg/actuation, HFA-134a 50% w/w, HFA-227ea 50% w/w): 3
Sedimentation score ([1]; 150 μg/actuation, HFA-134a 75% w/w, HFA-227ea 25% w/w): 3
Sedimentation score ([1]; 150 μg/actuation, HFA-134a 100% w/w, HFA-227ea 0% w/w): 5
Sedimentation score ([1]; 500 μg/actuation, HFA-134a 0% w/w, HFA-227ea 100% w/w): 2
Sedimentation score ([1]; 500 μg/actuation, HFA-134a 25% w/w, HFA-227ea 75% w/w): 3
Sedimentation score ([1]; 500 μg/actuation, HFA-134a 50% w/w, HFA-227ea 50% w/w): 2
Sedimentation score ([1]; 500 μg/actuation, HFA-134a 75% w/w, HFA-227ea 25% w/w): 3
Sedimentation score ([1]; 500 μg/actuation, HFA-134a 100% w/w, HFA-227ea 0% w/w): 3
Sedimentation score ([1]; 1000 μg/actuation, HFA-134a 0% w/w, HFA-227ea 100% w/w): 2
Sedimentation score ([1]; 1000 μg/actuation, HFA-134a 25% w/w, HFA-227ea 75% w/w): 4
Sedimentation score ([1]; 1000 μg/actuation, HFA-134a 50% w/w, HFA-227ea 50% w/w): 3
Sedimentation score ([1]; 1000 μg/actuation, HFA-134a 75% w/w, HFA-227ea 25% w/w): 4
Sedimentation score ([1]; 1000 μg/actuation, HFA-134a 100% w/w, HFA-227ea 0% w/w): 4
Suspension behaviour on and after shaking ([1]; formulation in HFA-134a): readily suspended on shaking, with rapid flocculation and gradual sedimentation observed after shaking was stopped
Suspension behaviour on and after shaking ([1]; formulation in HFA-227ea): creaming was observed after the cessation of shaking
Suspension behaviour on and after shaking ([1]; formulation in blend of HFA-134a/HFA-227ea (50/50)): creaming was observed after the cessation of shaking
Sedimentation score ([2]; 10 μg/actuation, ethanol 1% w/w, oleic acid 0.010% w/w): 6
Sedimentation score ([2]; 10 μg/actuation, ethanol 1% w/w, oleic acid 0.500% w/w): 1
Sedimentation score ([2]; 10 μg/actuation, ethanol 5% w/w, oleic acid 0.255% w/w): 6
Sedimentation score ([2]; 10 μg/actuation, ethanol 15% w/w, oleic acid 0.010% w/w): 6
Sedimentation score ([2]; 10 μg/actuation, ethanol 15% w/w, oleic acid 0.500% w/w): 6
Sedimentation score ([2]; 150 μg/actuation, ethanol 1% w/w, oleic acid 0.255% w/w): 2
Sedimentation score ([2]; 150 μg/actuation, ethanol 5% w/w, oleic acid 0.010% w/w): 4
Sedimentation score ([2]; 150 μg/actuation, ethanol 5% w/w, oleic acid 0.255% w/w (six replicate samples)): 5 (5×) and 4
Sedimentation score ([2]; 150 μg/actuation, ethanol 5% w/w, oleic acid 0.500% w/w): 4
Sedimentation score ([2]; 150 μg/actuation, ethanol 15% w/w, oleic acid 0.255% w/w): 8
Sedimentation score ([2]; 1000 μg/actuation, ethanol 1% w/w, oleic acid 0.010% w/w): 3
Sedimentation score ([2]; 1000 μg/actuation, ethanol 1% w/w, oleic acid 0.500% w/w): 2
Sedimentation score ([2]; 1000 μg/actuation, ethanol 5% w/w, oleic acid 0.255% w/w): 3
Sedimentation score ([2]; 1000 μg/actuation, ethanol 15% w/w, oleic acid 0.010% w/w): 4
Sedimentation score ([2]; 1000 μg/actuation, ethanol 15% w/w, oleic acid 0.500% w/w): 5
Amount of dissolved RPL554 versus ethanol concentration ([3]; HFA-134a with 1-12% w/w ethanol): increased with increasing ethanol concentration
Effect of oleic acid on the solubility of RPL554 ([3]; HFA-134a/ethanol, ethanol/oleic acid ratio 50:1): no effect
Solubility classification according to the USP/BP criteria ([4]; Analytical Reagent grade ethanol, previous (original) assessment): practically insoluble
Solubility classification according to the USP/BP criteria ([4]; dehydrated alcohol (100% USP-NF ethanol), reassessment): very slightly soluble
